SMILES strings stand for the structures. Bridge positions count the residues as written; N and C are the ends. Square brackets hold non-standard residues; d marks the D form. Peptide text beside a SMILES is read from it. * marks the point of attachment. ξ: configuration not given here. Phe(4-COOH) = N[C@@H](Cc1ccc(C(=O)O)cc1)C(=O)O; Bip = N[C@@H](Cc1ccc(-c2ccccc2)cc1)C(=O)O; Phe(4-Cl) = N[C@@H](Cc1ccc(Cl)cc1)C(=O)O; Phe(3-Me) = Cc1cccc(C[C@H](N)C(=O)O)c1; Val(3-OH) = CC(C)(O)[C@H](N)C(=O)O; hPhe = N[C@@H](CCc1ccccc1)C(=O)O; 3Pal = N[C@@H](Cc1cccnc1)C(=O)O; 4Pal = N[C@@H](Cc1ccncc1)C(=O)O; Cha = N[C@@H](CC1CCCCC1)C(=O)O; Cit = NC(=O)NCCC[C@H](N)C(=O)O; Ile(3ξ) = CCC(C)[C@H](N)C(=O)O; Thr(3ξ) = CC(O)[C@H](N)C(=O)O; Dap(Me) = CNC[C@H](N)C(=O)O; Pip = O=C(O)[C@@H]1CCCCN1; dDab = NCC[C@@H](N)C(=O)O; Carboxymethyl = O=C(O)C*; NMeA = CN[C@@H](C)C(=O)O; Dab = NCC[C@H](N)C(=O)O; Dap = NC[C@H](N)C(=O)O

T1 sequence (Q15116 25-288): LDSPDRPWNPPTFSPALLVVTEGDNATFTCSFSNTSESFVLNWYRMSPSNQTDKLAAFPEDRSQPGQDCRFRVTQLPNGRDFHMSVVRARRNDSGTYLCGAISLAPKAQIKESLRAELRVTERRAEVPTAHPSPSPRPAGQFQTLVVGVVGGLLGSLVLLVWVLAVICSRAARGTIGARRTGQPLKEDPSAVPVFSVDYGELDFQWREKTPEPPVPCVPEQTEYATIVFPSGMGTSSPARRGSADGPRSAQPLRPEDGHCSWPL

The assay has as its target T1, PE-labeled human PD-L1-Ig binding to Jurkat cell line over-expressing human PD-1 (Jurkat-PD-1) (Homo sapiens, UniProt Q15116).
T1 construct: expressed in transfected cells; host or cells: Jurkat
Kind of assay: Jurkat-PD-1 Cell Binding High-Content Screening Assay (CBA): Method 1. The settings on record: Jurkat-hPD-1 cells, PE-labeled PD-L1-Ig 20 nM final; read-out: Jurkat HPDL1 PD1 IC50 (uM) (Method 1).
The term IC50 denotes the concentration at which inhibition is half-maximal. For `CC(C)C[C@@H]1NC(=O)[C@H](CCCNC(=N)N)NC(=O)[C@@H](CC(C)C)NC(=O)[C@H](C)N(C)C(=O)[C@H](CCCNC(=N)N)NC(=O)[C@H](Cc2ccc(-c3ccccc3)cc2)NC(=O)[C@H](C(C)C)NC(=O)[C@H](Cc2c[nH]c3ccccc23)NC(=O)[C@H](CC(=O)O)NC(=O)[C@H](Cc2ccc(Cl)cc2)NC(=O)[C@H](Cc2ccccc2)NC(=O)CSC[C@@H](C(=O)N[C@@H](C)C(N)=O)NC(=O)[C@H]([C@@H](C)O)NC(=O)[C@H](C(C)C)NC1=O` [Compound 1081] ({CH2CO}-F[Phe(4-Cl)]DWV[Bip]R[NMeA][dL]RLVTCA-NH2; thioether N-14), the IC50 turned out to be 0.06 µM. Then `CC(C)C[C@@H]1NC(=O)[C@H](CCCNC(=N)N)NC(=O)[C@@H](Cc2ccccc2)NC(=O)[C@H](C)N(C)C(=O)[C@H](CCCNC(=N)N)NC(=O)[C@H](Cc2ccc(-c3ccccc3)cc2)NC(=O)[C@H](C(C)C)NC(=O)[C@H](Cc2c[nH]c3ccccc23)NC(=O)[C@H](CC(=O)O)NC(=O)[C@H](Cc2ccc(O)cc2)NC(=O)[C@H](CCC(N)=O)NC(=O)CSC[C@@H](C(=O)N[C@@H](C)C(N)=O)NC(=O)[C@H](CO)NC(=O)[C@H](C(C)C)NC1=O` [Compound 1043] ({CH2CO}-QYDWV[Bip]R[NMeA][dF]RLVSCA-NH2; thioether N-14), with 0.17 µM; and `Cc1cccc(C[C@@H]2NC(=O)[C@H](CC(=O)O)NC(=O)[C@H](Cc3ccc(C(=O)O)cc3)NC(=O)[C@H](Cc3ccc(OCC(=O)O)cc3)NC(=O)CSC[C@@H](C(=O)N[C@@H](CCC(=O)O)C(N)=O)NC(=O)[C@H](CO)NC(=O)[C@H](C(C)C)NC(=O)[C@H](CC(C)C)NC(=O)[C@H](CC(N)=O)NC(=O)[C@@H](CC(C)C)NC(=O)[C@H](C)N(C)C(=O)[C@H](C(C)C)NC(=O)[C@H](Cc3ccc(-c4ccccc4)cc3)NC(=O)[C@H](CC(C)C)NC2=O)c1` [Compound 1604] ({CH2CO}-Y(Carboxymethyl)[Phe(4-COOH)]D[Phe(3-Me)]L[Bip]V[NMeA][dL]NLVSCE-NH2; thioether N-14), with 0.01 µM; and `Cc1cccc(C[C@@H]2NC(=O)[C@H](CC(=O)O)NC(=O)[C@H](Cc3ccc(OCC(=O)O)cc3)NC(=O)[C@H](C(C)O)NC(=O)CSC[C@@H](C(=O)N[C@H](CCN)C(N)=O)NC(=O)[C@H](C(C)(C)O)NC(=O)[C@H](C(C)C)NC(=O)[C@H](CC3CCCCC3)NC(=O)[C@H](CCN)NC(=O)[C@@H](CC(C)C)NC(=O)[C@H](C)N(C)C(=O)[C@H](Cc3ccc(OCC(=O)O)cc3)NC(=O)[C@H](Cc3ccc(-c4ccccc4)cc3)NC(=O)[C@H](Cc3ccc(C(=O)O)cc3)NC2=O)c1` (stereo partly drawn) [Compound 2156] ({CH2CO}-[Thr(3ξ)]Y(Carboxymethyl)D[Phe(3-Me)][Phe(4-COOH)][Bip]Y(Carboxymethyl)[NMeA][dL][Dab][Cha]V[Val(3-OH)]C[dDab]-NH2; thioether N-14), with 0.12 µM. Then `CCC(C)[C@@H]1NC(=O)[C@H](Cc2ccc(-c3ccccc3)cc2)NC(=O)[C@H](C(C)C)NC(=O)[C@H](Cc2c[nH]c3ccccc23)NC(=O)[C@H](CC(=O)O)NC(=O)[C@H](Cc2ccc(O)cc2)NC(=O)[C@H](Cc2ccncc2)NC(=O)CSC[C@@H](C(=O)N[C@@H](C)C(N)=O)NC(=O)[C@H](C(C)O)NC(=O)[C@H](C(C)C)NC(=O)[C@H](CC2CCCCC2)NC(=O)[C@H](Cc2c[nH]cn2)NC(=O)[C@@H](CC(C)C)NC(=O)[C@H](C)N(C)C1=O` (stereo partly drawn) [Compound 2093] ({CH2CO}-[4Pal]YDWV[Bip][Ile(3ξ)][NMeA][dL]H[Cha]V[Thr(3ξ)]CA-NH2; thioether N-14), with 0.11 µM; and `CC(C)C[C@@H]1NC(=O)[C@H](CCN)NC(=O)[C@@H](CC(C)C)NC(=O)[C@H](C)N(C)C(=O)[C@H](CCCNC(=N)N)NC(=O)[C@H](Cc2ccc(-c3ccccc3)cc2)NC(=O)[C@H](C(C)C)NC(=O)[C@H](Cc2c[nH]c3ccccc23)NC(=O)[C@H](CC(=O)O)NC(=O)[C@H](Cc2ccc(O)cc2)NC(=O)[C@H](CC(N)=O)NC(=O)CSC[C@@H](C(=O)N[C@@H](CO)C(N)=O)NC(=O)[C@H]([C@@H](C)O)NC(=O)[C@H](C(C)C)NC1=O` [Compound 1179] ({CH2CO}-NYDWV[Bip]R[NMeA][dL][Dab]LVTCS-NH2; thioether N-14), with 0.07 µM; and `CC(C)C[C@@H]1NC(=O)CSC[C@@H](C(=O)NCC(N)=O)NC(=O)[C@H](CO)NC(=O)[C@H](C(C)C)NC(=O)[C@H](CC(C)C)NC(=O)[C@H](CC(N)=O)NC(=O)[C@H](CC(N)=O)NC(=O)[C@H](C)N(C)C(=O)[C@H](C(C)C)NC(=O)[C@H](Cc2ccc(-c3ccccc3)cc2)NC(=O)[C@H](CC(C)C)NC(=O)[C@H](Cc2c[nH]c3ccccc23)NC(=O)[C@H](CC(=O)O)NC(=O)[C@H](Cc2ccc(O)cc2)NC1=O` [Compound 1815] ({CH2CO}-LYDWL[Bip]V[NMeA]NNLVSCG-NH2; thioether N-14), with 0.31 µM. Then `CNC[C@@H]1NC(=O)CSC[C@@H](C(=O)N[C@@H](C)C(N)=O)NC(=O)[C@H](C(C)O)NC(=O)[C@H](C(C)C)NC(=O)[C@H](CC(C)C)NC(=O)[C@H](CCN)NC(=O)[C@@H](CC(C)C)NC(=O)[C@H](C)N(C)C(=O)[C@H](C(C)C)NC(=O)[C@H](Cc2ccc(-c3ccccc3)cc2)NC(=O)[C@H](C(C)C)NC(=O)[C@H](Cc2c[nH]c3ccccc23)NC(=O)[C@H](CC(=O)O)NC(=O)[C@H](Cc2ccc(O)cc2)NC1=O` (stereo partly drawn) [Compound 2041] ({CH2CO}-[Dap(Me)]YDWV[Bip]V[NMeA][dL][Dab]LV[Thr(3ξ)]CA-NH2; thioether N-14), with 0.02 µM. `CC(C)C[C@@H]1NC(=O)[C@H](CCN)NC(=O)[C@@H](CC(C)C)NC(=O)[C@@H]2CCCCN2C(=O)[C@H](Cc2cnc[nH]2)NC(=O)[C@H](Cc2ccc(-c3ccccc3)cc2)NC(=O)[C@H](C(C)C)NC(=O)[C@H](Cc2c[nH]c3ccccc23)NC(=O)[C@H](CC(=O)O)NC(=O)[C@H](Cc2ccc(O)cc2)NC(=O)[C@H](CC(N)=O)NC(=O)CSC[C@@H](C(=O)N[C@@H](C)C(N)=O)NC(=O)[C@H]([C@@H](C)O)NC(=O)[C@H](C(C)C)NC1=O` [Compound 1381] ({CH2CO}-NYDWV[Bip]H[Pip][dL][Dab]LVTCA-NH2; thioether N-14): the IC50 was 0.03 µM. Then `CC(C)C[C@@H]1NC(=O)[C@H](Cc2c[nH]c3ccccc23)NC(=O)[C@H](CC(=O)O)NC(=O)[C@H](Cc2ccc(C(=O)O)cc2)NC(=O)[C@H](Cc2ccc(OCC(=O)O)cc2)NC(=O)CSC[C@@H](C(=O)N[C@@H](CCN)C(N)=O)NC(=O)[C@H](CCC(=O)O)NC(=O)[C@H](C(C)(C)O)NC(=O)[C@H](CC2CCCCC2)NC(=O)[C@H](CCN)NC(=O)[C@@H](CC(C)C)NC(=O)[C@H](C)N(C)C(=O)[C@H](C(C)(C)O)NC(=O)[C@H](Cc2ccc(-c3ccccc3)cc2)NC1=O` [Compound 1717] ({CH2CO}-Y(Carboxymethyl)[Phe(4-COOH)]DWL[Bip][Val(3-OH)][NMeA][dL][Dab][Cha][Val(3-OH)]EC[Dab]-NH2; thioether N-14), with 0.02 µM; and `CC(C)C[C@@H]1NC(=O)[C@H](CC(N)=O)NC(=O)[C@@H](CC(C)C)NC(=O)[C@H](C)N(C)C(=O)[C@H](CCCNC(N)=O)NC(=O)[C@H](Cc2ccc(-c3ccccc3)cc2)NC(=O)[C@H](C(C)C)NC(=O)[C@H](Cc2c[nH]c3ccccc23)NC(=O)[C@H](CC(=O)O)NC(=O)[C@H](Cc2ccc(O)cc2)NC(=O)[C@H](Cc2ccccc2)NC(=O)CSC[C@@H](C(=O)N[C@@H](C)C(=O)N[C@@H](CN)C(=O)O)NC(=O)[C@H](CO)NC(=O)[C@H](C(C)C)NC1=O` [Compound 2004] ({CH2CO}-FYDWV[Bip][Cit][NMeA][dL]NLVSCA[Dap]-OH; thioether N-14), with 0.02 µM; and `CC(C)C[C@@H]1NC(=O)[C@H](CCCNC(=N)N)NC(=O)[C@@H](CC(C)C)NC(=O)[C@H](C)N(C)C(=O)[C@H](CCCNC(=N)N)NC(=O)[C@H](Cc2ccc(-c3ccccc3)cc2)NC(=O)[C@H](C(C)C)NC(=O)[C@H](Cc2c[nH]c3ccccc23)NC(=O)[C@H](CC(=O)O)NC(=O)[C@H](Cc2ccc(O)cc2)NC(=O)[C@H](Cc2cccnc2)NC(=O)CSC[C@@H](C(=O)N[C@@H](C)C(N)=O)NC(=O)[C@H]([C@@H](C)O)NC(=O)[C@H](C(C)C)NC1=O` [Compound 1049] ({CH2CO}-[3Pal]YDWV[Bip]R[NMeA][dL]RLVTCA-NH2; thioether N-14), with 0.01 µM. As to `CC(C)C[C@@H]1NC(=O)[C@H](Cc2c[nH]c3ccccc23)NC(=O)[C@H](CC(=O)O)NC(=O)[C@H](Cc2ccc(O)cc2)NC(=O)[C@H](Cc2ccccc2)NC(=O)CSC[C@@H](C(=O)N[C@@H](C)C(N)=O)NC(=O)[C@H]([C@@H](C)O)NC(=O)[C@H](C(C)C)NC(=O)[C@H](CC(C)C)NC(=O)[C@H](CC(N)=O)NC(=O)[C@@H](C)NC(=O)[C@H](C)N(C)C(=O)[C@H](C(C)C)NC(=O)[C@H](Cc2ccc(-c3ccccc3)cc2)NC1=O` [Compound 1744] ({CH2CO}-FYDWL[Bip]V[NMeA][dA]NLVTCA-NH2; thioether N-14), the IC50 was 0.02 µM. Under `CC(C)C[C@@H]1NC(=O)[C@H](CCN)NC(=O)[C@@H](CC(C)C)NC(=O)[C@H](C)N(C)C(=O)[C@H](CCCNC(=N)N)NC(=O)[C@H](Cc2ccc(-c3ccccc3)cc2)NC(=O)[C@H](C(C)C)NC(=O)[C@H](Cc2c[nH]c3ccccc23)NC(=O)[C@H](CC(=O)O)NC(=O)[C@H](Cc2ccc(O)cc2)NC(=O)[C@H](CCN)NC(=O)CSC[C@@H](C(=O)N[C@@H](C)C(N)=O)NC(=O)[C@H]([C@@H](C)O)NC(=O)[C@H](C(C)C)NC1=O` [Compound 1340] ({CH2CO}-[Dab]YDWV[Bip]R[NMeA][dL][Dab]LVTCA-NH2; thioether N-14) stands 0.02 µM; under `CC(C)C[C@@H]1NC(=O)[C@H](CCN)NC(=O)[C@@H](CC(C)C)NC(=O)[C@H](C)N(C)C(=O)[C@H](CCCNC(=N)N)NC(=O)[C@H](Cc2ccc(-c3ccccc3)cc2)NC(=O)[C@H](C(C)C)NC(=O)[C@H](Cc2c[nH]c3ccccc23)NC(=O)[C@H](CC(=O)O)NC(=O)[C@H](CCc2ccccc2)NC(=O)[C@H](CC(N)=O)NC(=O)CSC[C@@H](C(=O)N[C@@H](C)C(N)=O)NC(=O)[C@H]([C@@H](C)O)NC(=O)[C@H](C(C)C)NC1=O` [Compound 1353] ({CH2CO}-N[hPhe]DWV[Bip]R[NMeA][dL][Dab]LVTCA-NH2; thioether N-14), 0.03 µM.

The record behind these values is US20240409585A1, “MACROCYCLIC IMMUNOMODULATORS” (priority 2021, published 2024).
